Experiments:
22RV1 cells = assay: Cell proliferation assay, CellTiter Glo; format: cell-based; conditions: Homo sapiens, 22Rv1, 72 h; cell growth inhibition, three days of treatment
Method: (§1) a. […] IC50s were determined using 8 concentrations/compound. […] Ki=IC50/(1+[L]/Kd) c.
(§2) Cells were plated at varying density in the respective growth medium in 96 well plates. 24 hr later, cells were treated, in triplicate or quadruplicate, with test articles prepared in a range of concentrations by series dilution of DMSO stock solutions in growth medium and incubated for three to seven days. The number of viable 22RV1 and HT-29 cells was measured using CellTiter Glo assay (CTG, Promega, Madison, WI) after three days of treatment. Cell viability data were plotted using GraphPad Prism (GraphPad Software, Inc., San Diego, CA). In addition, a nonlinear regression model with a sigmoidal dose response and variable slope within GraphPad Prism was used to calculate the IC50 value of individual test articles.

HT-29 cells = assay: Cell proliferation assay, CellTiter Glo; format: cell-based; conditions: Homo sapiens, HT-29, 72 h; cell growth inhibition, three days of treatment
Method: as §1, §2

Human recombinant PARP1 = Human recombinant PARP1 (Homo sapiens (Human), UniProt P09874); assay: RBC HotSpot PARP1 radioisotope-based filter binding assay; conditions: read-out: PARP1 IC50; 2.5 nM PARP1, histone H4, 10 μM 32P-NAD+
Sequence of Human recombinant PARP1 (P09874 whole entry): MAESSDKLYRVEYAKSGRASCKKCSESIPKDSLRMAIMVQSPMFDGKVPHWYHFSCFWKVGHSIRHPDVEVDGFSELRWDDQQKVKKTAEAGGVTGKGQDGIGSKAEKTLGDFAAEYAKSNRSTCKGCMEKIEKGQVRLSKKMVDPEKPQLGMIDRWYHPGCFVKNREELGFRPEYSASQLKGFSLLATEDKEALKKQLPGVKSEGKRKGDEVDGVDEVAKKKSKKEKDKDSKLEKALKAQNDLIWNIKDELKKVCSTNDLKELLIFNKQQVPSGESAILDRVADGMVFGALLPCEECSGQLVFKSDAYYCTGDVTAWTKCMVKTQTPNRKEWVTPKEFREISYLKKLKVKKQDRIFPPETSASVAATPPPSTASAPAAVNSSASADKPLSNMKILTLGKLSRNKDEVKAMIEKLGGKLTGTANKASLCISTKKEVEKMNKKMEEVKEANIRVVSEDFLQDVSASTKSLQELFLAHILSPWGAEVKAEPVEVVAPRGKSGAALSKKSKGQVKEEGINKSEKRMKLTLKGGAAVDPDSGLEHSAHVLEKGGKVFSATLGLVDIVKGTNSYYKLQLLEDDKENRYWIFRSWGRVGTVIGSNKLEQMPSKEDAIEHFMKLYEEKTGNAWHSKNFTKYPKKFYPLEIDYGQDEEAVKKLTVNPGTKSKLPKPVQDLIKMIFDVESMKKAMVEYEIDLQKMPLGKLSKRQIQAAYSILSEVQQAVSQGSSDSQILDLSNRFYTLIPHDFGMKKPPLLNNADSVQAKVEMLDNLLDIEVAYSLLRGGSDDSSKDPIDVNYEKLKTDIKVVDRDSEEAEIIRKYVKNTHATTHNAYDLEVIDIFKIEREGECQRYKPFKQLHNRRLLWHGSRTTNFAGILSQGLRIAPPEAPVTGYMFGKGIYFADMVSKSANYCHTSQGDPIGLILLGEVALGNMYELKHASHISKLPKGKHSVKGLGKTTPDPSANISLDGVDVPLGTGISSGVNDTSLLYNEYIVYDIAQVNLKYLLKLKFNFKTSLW
Method: (§3) RBC HotSpot Poly(ADP-ribose) Polymerases 1 (PARP1) and Poly(ADP-ribose) Polymerases 2 (PARP2) Assays: The assay was conducted at Reaction Biology Corporation (RBC; Malvern, PA). The assay principle is radioisotope-based filter binding assay where incorporation of radioisotope-labeled NAD^+ into the substrate captured on filter is detected after washout free NAD^+. Data were analyzed using Excel and GraphPad Prism software for IC50 curve fits. Each assay was conducted with PJ34 as a positive control. PARP1 assay: Human recombinant PARP1 at a final concentration of 2.5 nM was combined with histone H4 (20 μM) and test articles at various concentrations in reaction buffer (50 mM Tris-HCL, pH 8.0, 50 mM NaCl, 10 mM MgCl2, 1 mM DTT, 1% DMSO, and 20 μg/mL activated DNA). The solution was inoculated for 20 min at room temperature and the reaction initiated by adding [adenylate-^32P]-Nicotinamide Adenine Dinucleotide, ^32P-NAD^+ at a final concentration of 10 μM. After incubation for 2 hrs at room temperature, the reaction mixture was filtered and washed with 0.75% phosphoric acid for radioactivity detection. • ii. PARP2 assay: Human recombinant PARP2 at a final concentration of 2.5 nM was combined with histone H3 (20 μM) and test articles at various concentrations in reaction buffer (50 mM Tris-HCL, pH 8.0, 50 mM NaCl, 10 mM MgCl2, 1 mM DTT, 1% DMSO, and 20 μg/mL activated DNA). The solution was inoculated for 20 min at room temperature and the reaction was initiated by adding [adenylate-^32P]-Nicotinamide Adenine Dinucleotide, ^32P-NAD^+ at a final concentration of 10 μM. After incubation for 2 hrs at room temperature, the reaction mixture was filtered and washed with 0.75% phosphoric acid for radioactivity detection. b. AR binding assay: AR in LNCaP cytosol was used for determining the binding affinity of test articles and the reference compound—progesterone (Sigma, Cat: E2785, St. Louis, MO). IC50s were determined using 8 concentrations/compound. Cytosol was plated at 200 μg/well (100 μL) into a 96-well conical polypropylene plate (Agilent, Cat: 5042-1385, Santa Clara, CA) and mixed with 3 μL of test compound. After adding 100 μL of ^3H-methyltrienolone (PerkinElmer, Cat: NET590250UC, San Jose, CA), the plate was sealed and shaken at 300 rpm at 4° C. for 24 hours. Post incubation, 100 μL of radioligand adsorption buffer containing 10 mM Tris-HCl, pH 7.4; 1.5 mM EDTA; 1 mM DTT; 0.25% charcoal; 0.0025% dextran was added to individual well. Plate was shaken for 15 min at 4° C. followed by centrifugation at 3000 rpm for 30 min at 4° C. 150 μL of supernatant was transferred into scint-tube (PerkinElmer, Cat: 6000192) and mixed with 2 mL of Ultima Gold Cocktail (PerkinElmer, Cat: 6013329). Radioactivity was counted using a TriCarb 2910 TR scintillation counter (PerkinElmer). Inhibition of the radioactivity by test articles were calculated using the equation below: % Inhibition=(1−(Assay well-Average_LC)/(Average_HC-Average_LC))×100%. IC50 values were calculated and graphed using the model “log(inhibitor) vs. response—Variable slope” included in GraphPad Prism 5 (San Diego, CA). […] Ki=IC50/(1+[L]/Kd) c.

AR in LNCaP cytosol = AR in LNCaP cytosol (Homo sapiens (Human), UniProt P10275, T878A); assay: AR binding assay (3H-methyltrienolone displacement); conditions: read-out: AR IC50, 4° C. for 24 hours
Sequence of AR in LNCaP cytosol (P10275 whole entry T878A): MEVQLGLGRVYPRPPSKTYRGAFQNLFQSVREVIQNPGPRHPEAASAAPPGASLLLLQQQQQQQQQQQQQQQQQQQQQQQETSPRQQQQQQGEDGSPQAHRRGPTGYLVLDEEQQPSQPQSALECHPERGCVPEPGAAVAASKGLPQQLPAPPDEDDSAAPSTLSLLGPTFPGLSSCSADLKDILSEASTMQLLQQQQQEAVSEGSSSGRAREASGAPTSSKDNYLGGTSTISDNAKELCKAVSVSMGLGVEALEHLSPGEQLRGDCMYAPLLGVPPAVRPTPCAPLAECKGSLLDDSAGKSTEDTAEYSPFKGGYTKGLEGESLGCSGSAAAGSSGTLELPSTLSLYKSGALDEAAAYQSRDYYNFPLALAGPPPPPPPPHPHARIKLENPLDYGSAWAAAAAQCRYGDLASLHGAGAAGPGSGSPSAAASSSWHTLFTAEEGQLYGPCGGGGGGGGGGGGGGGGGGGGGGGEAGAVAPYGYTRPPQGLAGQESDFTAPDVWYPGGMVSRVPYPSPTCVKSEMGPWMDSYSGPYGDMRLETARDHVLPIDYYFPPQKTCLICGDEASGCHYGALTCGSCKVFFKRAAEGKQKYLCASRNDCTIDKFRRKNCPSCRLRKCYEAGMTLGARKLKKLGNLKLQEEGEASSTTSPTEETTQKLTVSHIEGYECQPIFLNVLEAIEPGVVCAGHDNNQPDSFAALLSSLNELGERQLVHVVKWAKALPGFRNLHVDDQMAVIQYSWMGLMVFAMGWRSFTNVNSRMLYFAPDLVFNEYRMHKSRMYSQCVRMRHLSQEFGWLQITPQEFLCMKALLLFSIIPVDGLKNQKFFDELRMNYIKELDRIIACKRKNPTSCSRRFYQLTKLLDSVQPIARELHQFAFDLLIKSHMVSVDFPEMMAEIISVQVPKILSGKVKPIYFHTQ
Method: as §3

Human recombinant PARP2 = Human recombinant PARP2 (Homo sapiens (Human), UniProt Q9UGN5); assay: RBC HotSpot PARP2 radioisotope-based filter binding assay; conditions: read-out: PARP2 IC50; 2.5 nM PARP2, histone H3, 10 μM 32P-NAD+
Sequence of Human recombinant PARP2 (Q9UGN5 whole entry): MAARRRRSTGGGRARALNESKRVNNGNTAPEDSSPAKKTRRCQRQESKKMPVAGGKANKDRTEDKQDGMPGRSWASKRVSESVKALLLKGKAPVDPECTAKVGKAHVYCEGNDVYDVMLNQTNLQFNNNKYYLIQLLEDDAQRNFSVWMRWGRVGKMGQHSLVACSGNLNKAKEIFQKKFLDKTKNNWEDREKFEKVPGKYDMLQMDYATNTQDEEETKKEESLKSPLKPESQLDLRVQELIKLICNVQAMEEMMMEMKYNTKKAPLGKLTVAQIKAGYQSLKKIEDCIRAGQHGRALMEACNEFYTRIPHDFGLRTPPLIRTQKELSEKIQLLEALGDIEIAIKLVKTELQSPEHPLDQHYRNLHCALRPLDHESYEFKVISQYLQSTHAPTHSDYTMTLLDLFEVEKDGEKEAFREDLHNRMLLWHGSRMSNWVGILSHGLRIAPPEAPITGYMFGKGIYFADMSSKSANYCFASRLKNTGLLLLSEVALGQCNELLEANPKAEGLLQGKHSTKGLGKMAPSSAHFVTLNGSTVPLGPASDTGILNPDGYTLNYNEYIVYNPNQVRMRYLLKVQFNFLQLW
Method: as §3

Row | Compound | IC50 (22RV1 cells) [nM] | IC50 (HT-29 cells) [nM] | IC50 (Human recombinant PARP1) [nM] | IC50 (AR in LNCaP cytosol) [nM] | IC50 (Human recombinant PARP2) [nM]
1 | CC1(C)C(=O)N(c2ccc(C#N)c(C(F)(F)F)c2)C(=O)N1CCNC(=O)c1cc(Cc2n[nH]c(=O)c3ccccc23)ccc1F [Compound 1.8, N-(2-(3-(4-cyano-3-(trifluoromethyl)phenyl)-5,5-dimethyl-2,4-dioxoimidazolidin-1-yl)ethyl)-2-fluoro-5-((4-oxo-3,4-dihydrophthalazin-1-yl)methyl)benzamide] | 5000 | 17000 | 10 | 503 | 1
2 | CC1(C)C(=O)N(c2ccc(C#N)c(C(F)(F)F)c2)C(=S)N1CCNC(=O)c1cc(Cc2n[nH]c(=O)c3ccccc23)ccc1F [Compound 1.6, N-(2-(3-(4-cyano-3-(trifluoromethyl)phenyl)-5,5-dimethyl-4-oxo-2-thioxoimidazolidin-1-yl)ethyl)-2-fluoro-5-((4-oxo-3,4-dihydrophthalazin-1-yl)methyl)benzamide] | 6000 | 10000 | 5 | 94 | 0.6
3 | C[C@](O)(COC1CCN(C(=O)c2cc(Cc3n[nH]c(=O)c4ccccc34)ccc2F)CC1)C(=O)Nc1ccc(C#N)c(C(F)(F)F)c1 [Compound 1.5, (S)—N-(4-cyano-3-(trifluoromethyl)phenyl)-3-(1-(2-fluoro-5-((4-oxo-3,4-dihydrophthalazin-1-yl)methyl)benzoyl)piperidin-4-yloxy)-2-hydroxy-2-methylpropanamide] | 14000 | 20000 | 2 | 6670 | 0.4
4 | C[C@](O)(CS(=O)(=O)C1CCN(C(=O)c2cc(Cc3n[nH]c(=O)c4ccccc34)ccc2F)CC1)C(=O)Nc1ccc(C#N)c(C(F)(F)F)c1 [Compound 1.4, (R)—N-(4-cyano-3-(trifluoromethyl)phenyl)-3-(1-(2-fluoro-5-((4-oxo-3,4-dihydrophthalazin-1-yl)methyl)benzoyl)piperidin-4-ylsulfonyl)-2-hydroxy-2-methylpropanamide] | 21000 | > 30000 | 0.6 | 1030 | 0.2
5 | CC1(C)C(=O)N(c2ccc([N+](=O)[O-])c(C(F)(F)F)c2)C(=O)N1CCNC(=O)c1cc(Cc2n[nH]c(=O)c3ccccc23)ccc1F [Compound 1.7, N-(2-(5,5-dimethyl-3-(4-nitro-3-(trifluoromethyl)phenyl)-2,4-dioxoimidazolidin-1-yl)ethyl)-2-fluoro-5-((4-oxo-3,4-dihydrophthalazin-1-yl)methyl)benzamide] | 3000 | 10000 | 7 | 4620 | 1
